The results in this text go back to PubChem BioAssay (NCI).

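A five-concentration, 48-hour dose response in 96-well plates underlies each endpoint, interpolated linearly between surrounding concentrations. GI50 = concentration required for 50% inhibition of growth. TGI: concentration producing complete growth inhibition.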 Where a SMILES comes first, the peptide text is derived from it.

What all share (assay): growth of human tumour cells (NCI), 48 h
Experiment [1] relates to OVCAR-4 ovarian.
In experiment [2] the test system is NCI-H522 lung.
Experiment [3] relates to MALME-3M melanoma.
Experiment [4] has as its system DLD-1 colon.
Experiment [5] has as its system MOLT-4 leukemia.
Experiment [6] relates to SK-OV-3 ovarian.
Experiment [7] relates to UACC-257 melanoma.
Experiment [8] concerns NCI-H226 lung.
The test system of experiment [9] is CAKI-1 renal.
Experiment [10] relates to TK-10 renal.

As for `COc1ccc(-c2cc(-c3cc(Cl)cc(Br)c3O)[nH]c(=O)n2)cc1`, the TGI turned out to be 26.5 µM in [1]; 30 µM in experiment [2]; 42.3 µM in experiment [3]; 38.4 µM in experiment [4]; 35.3 µM in [5]; 38.8 µM in experiment [6]. The TGI in experiment [7] was 42.2 µM; in [8], 33.4 µM; in experiment [9], 37.2 µM; in experiment [10], 47.3 µM.
Consider `O=[N+]([O-])c1ccccc1C=NC12CC3CC(CC(C3)C1)C2`, for which the TGI in experiment [1], in [2], in [3], in experiment [4], in experiment [5] and in experiment [6] was > 100 µM in each case. The TGI in experiment [7], in experiment [8], in [9] and in experiment [10] was > 100 µM each time.
In the case of `COc1ccc2c(c1)[n+]([O-])c(-c1ccc(C)cc1)c(N)[n+]2[O-]`, the TGI was > 100 µM in experiment [1]; 30.3 µM in [2]; > 100 µM in experiment [3]; > 100 µM in experiment [4]; > 100 µM in [6]; 62 µM in experiment [7]. In addition, the TGI in experiment [8] and in experiment [9] was > 100 µM in each case.
As to `Cc1cnc2c(c1)C(=O)C1=C(OC(C)(C)CC1O)C2=O` (centres undefined), the TGI in [1] amounted to 25.6 µM; in [2] it was 31.4 µM; in [3] it was 27.6 µM; in experiment [4] it was 33.5 µM; in experiment [5], 44.3 µM; in experiment [6], 36.5 µM. Moreover, the TGI in [7] amounted to 27 µM; in experiment [8], 37.5 µM; in experiment [10], 34.1 µM.
On to `O=C(CC1(O)C(=O)Nc2ccccc21)c1ccc(O)cc1` (centres undefined), for which the TGI in experiment [1], in experiment [3], in experiment [4], in experiment [5], in experiment [6] and in experiment [7] was > 100 µM in each case. The TGI in experiment [8], in experiment [9] and in experiment [10] was > 100 µM each time.
Turning to `CN[C@@H](C)[C@H](N)c1ccccc1`, the TGI in experiment [2], in experiment [4], in [5], in [6], in experiment [7] and in experiment [8] was > 100 µM throughout. Also, the TGI in experiment [9] and in [10] was > 100 µM throughout.
In the case of `CC12CO[C@@](C)(CC(S(=O)(=O)c3ccccc3)C1)O2` (some centres undefined), the TGI in [1], in [2], in experiment [3], in experiment [4], in experiment [5] and in experiment [6] was > 100 µM in each case. Besides, the TGI in [7] is > 100 µM.
As to `CCN(CC)C(=O)N1CCN(C=S)CC1`, the TGI in experiment [1], in [2], in experiment [3], in [4], in experiment [5] and in [6] was > 100 µM throughout. For the same compound, the TGI in experiment [7], in experiment [8] and in [10] was > 100 µM throughout.
Take `Clc1ccc2nc(-c3ccccc3)nc(Cl)c2c1`: the TGI in [3] was 95.1 µM; in experiment [4], > 100 µM; in experiment [5], > 100 µM; in [6], 36.8 µM; in [7], > 100 µM; in [8] it was > 100 µM. For the same compound, the values for the TGI in experiment [9] and in experiment [10] were 54.9 µM and 63.9 µM, respectively.
Regarding `CC1C[C@]2(C[C@@H](C)C(=O)O2)O[C@@H]2CC3(C)[C@@H]4CCC5C(C)(C)OC(=O)C[C@H]6OO[C@]4(CC[C@]3(C)C12)CC56O` (some centres undefined), the TGI in [1], in experiment [2], in [3], in [4], in experiment [6] and in [7] was > 100 µM each time. Besides, the TGI in [8] and in experiment [10] was > 100 µM in each case.
Take `O=[N+]([O-])c1cc(Cl)ccc1OCc1ccccc1`: the TGI in experiment [1], in experiment [3], in experiment [4], in experiment [5], in experiment [6] and in experiment [7] was > 100 µM throughout. For the same compound, the TGI in [10] is > 100 µM.
Consider `NC(=O)N/N=C(/Cc1nc2ccc(C(=O)c3ccccc3)cc2[nH]c1=O)C(=O)Nc1ccc(C(F)(F)F)cc1[N+](=O)[O-]`, for which the TGI in experiment [1] is > 100 µM; in [2], 76.3 µM; in [3], > 100 µM; in experiment [4], > 100 µM; in [5], > 100 µM; in [6], > 100 µM. For the same compound, the TGI in [7], in experiment [9] and in experiment [10] was > 100 µM each time.
As for `CCOC(=O)[C@H]1Nc2ccc([N+](=O)[O-])cc2C2c3ccccc3CC21` (some centres undefined), the TGI is 49.8 µM in experiment [1]; 29.3 µM in experiment [2]; 68 µM in experiment [3]; > 100 µM in [4]; 69.1 µM in experiment [5]; 40.2 µM in experiment [7]. Also, the TGI in [8] was 55.1 µM; in experiment [9], > 100 µM; in experiment [10], 77.3 µM.
For `CC(CNCCCNCCNCCCNCO)[N+](=O)[O-]` (centres undefined), the TGI was 27.9 µM in experiment [1]; 4.22 µM in experiment [3]; 14.4 µM in experiment [4]; 30.4 µM in [5]; > 100 µM in experiment [6]; 26.1 µM in experiment [7]. For the same compound, the TGI in experiment [9] was determined as 18.6 µM; in experiment [10], 8.6 µM.
Consider `CC1=C(C(=O)Nc2ccc([N+](=O)[O-])cc2)C(c2ccc3c(c2)OCO3)C(C(=O)Nc2ccc([N+](=O)[O-])cc2)=C(C)N1`, for which the TGI is > 100 µM in experiment [1]; > 100 µM in experiment [2]; > 100 µM in experiment [3]; > 100 µM in experiment [4]; > 100 µM in experiment [6]; 50.7 µM in [7]. Further, the TGI in experiment [8] is 55.8 µM; in experiment [9] it was > 100 µM.
With `CC1=C(Cl)C=CP(=O)(OC(C)C)C1` (centres undefined), the TGI in experiment [1] was > 100 µM; in experiment [2], 87.7 µM; in [3] it was > 100 µM; in experiment [4], > 100 µM; in experiment [5] it was > 100 µM; in experiment [7], > 100 µM. In experiment [10], the TGI was > 100 µM.
For `O=C(Nc1cc(Cl)cc(Cl)c1)/C(Cc1nc2ccccc2[nH]c1=O)=N/NC(=O)c1ccncc1`, the TGI in [1], in experiment [3], in experiment [4], in experiment [5], in [6] and in experiment [7] was > 100 µM each time. Also, the TGI in experiment [9] and in [10] was > 100 µM throughout.
Consider `Cc1[nH]nc2c1N=C(c1ccccc1F)c1cc(C(N)=O)ccc1N2`, for which the GI50 is 5.25 µM in experiment [1]; 2.19 µM in experiment [2]; 18.3 µM in experiment [3]; 6.63 µM in experiment [5]; 6.43 µM in experiment [6]; 9.15 µM in [7]. Moreover, the GI50 in experiment [8] was 0.852 µM; in experiment [9], 3.83 µM; in [10] it was 3.61 µM. The TGI was > 25 µM in experiment [1]; > 19.6 µM in experiment [2]; > 25 µM in experiment [3]; 22 µM in [5]; > 25 µM in experiment [6]; > 25 µM in [7]. For the same compound, the figures for the TGI in experiment [8], in experiment [9] and in experiment [10] were 6.38 µM, > 19.7 µM and 16.3 µM, respectively.
In the case of `Cc1ccn2c(CCc3nnc4cc(C)ccn34)nnc2c1`, the TGI in experiment [1], in [2], in [3], in [5], in experiment [6] and in experiment [7] was > 100 µM throughout. The TGI in [8], in [9] and in experiment [10] was > 100 µM throughout.
With `Cc1cc2nc3cc(C)c(N)cc3[n+](-c3ccccc3)c2cc1N`, the GI50 in experiment [1] is 3.57 µM; in experiment [2], 3.73 µM; in experiment [3], 3.98 µM; in experiment [5], 6.5 µM; in experiment [6], 24.8 µM; in [7], 1.85 µM. The GI50 in experiment [8] was 6.23 µM; in experiment [9], > 100 µM; in [10] it was 36.6 µM. For the same compound, the TGI is > 100 µM in experiment [1]; > 41 µM in experiment [2]; 51.1 µM in experiment [3]; > 100 µM in experiment [5]; > 100 µM in [6]; 12 µM in [7]. Besides, the results for the TGI in [8], in experiment [9] and in experiment [10] were > 69.4 µM, > 100 µM and > 100 µM, respectively.
For `CN1CCN(Cc2ccc(NC(=O)c3cncc(C#Cc4cncc5nccnc45)c3)cc2C(F)(F)F)CC1`, the GI50 in experiment [1] is 1.04 µM; in [2], 3.17 µM; in experiment [3] it was 0.231 µM; in experiment [5], 1.89 µM; in experiment [6], 2.75 µM; in [7] it was 1.48 µM. The GI50 in [8] is 0.628 µM; in experiment [9], 2.18 µM; in experiment [10] it was 5.34 µM. The TGI was determined as 12 µM in [1]; 10.8 µM in experiment [2]; 1.3 µM in experiment [3]; 13.2 µM in [5]; 13 µM in experiment [6]; 6.27 µM in experiment [7]. Further, the TGI in [8] was > 50 µM; in experiment [9], 9.09 µM; in experiment [10], 12.8 µM.
`COc1cccc2c1C(=O)c1c(O)c3c(c(O)c1C2=O)C[C@@](O)(C(=O)CO)CC3OC1CC(O)C(O)C(C)O1` (some centres undefined): the TGI turned out to be 6.85 µM in [1]; 1.5 µM in experiment [2]; 0.806 µM in experiment [3]; 10.8 µM in [4]; 7.29 µM in experiment [6]; 2.99 µM in experiment [7]. Besides, the TGI in experiment [8] worked out at 0.219 µM; in [9], 12.1 µM; in experiment [10], 11.6 µM.
Regarding `CCC(C)C1NC(=O)C2CCCN2C(=O)CNC(=O)C(C)NC(=O)C(Cc2ccccc2)NC(=O)C(C(C)C)NC1=O` (centres undefined) (cyclo(GPIVFA); configuration not given here), the TGI in experiment [1], in experiment [3], in experiment [4], in experiment [5], in experiment [6] and in experiment [7] was > 100 µM in each case. The TGI in experiment [8], in experiment [9] and in [10] was > 100 µM in each case.
For the compound `COc1cc2c(cc1OC)NC(=O)NC(Cc1ccc3c(c1)OCO3)CC2` (centres undefined), the TGI was > 100 µM in experiment [1]; 76.2 µM in experiment [2]; > 100 µM in experiment [3]; > 100 µM in [4]; > 100 µM in experiment [5]; > 100 µM in experiment [6]. The TGI in [7], in experiment [9] and in experiment [10] was > 100 µM in each case.
As for `CCc1cc2ncc(CN3CCN(c4ccc(C(=O)NC)nc4)CC3)cc2[nH]c1=O`, the GI50 in [1] was 41.3 µM; in [2], 27.1 µM; in experiment [3], > 100 µM; in experiment [5], 46 µM; in experiment [6], > 100 µM; in experiment [7], 55.1 µM. Also, the GI50 was 14.7 µM in experiment [8], 24.2 µM in experiment [9] and 43.1 µM in [10]. Further, the TGI in experiment [1], in experiment [2], in experiment [3], in experiment [5], in experiment [6] and in experiment [7] was > 100 µM throughout. The TGI in experiment [8], in experiment [9] and in [10] was > 100 µM throughout.
As to `COC(=O)C1C=NNC1C(=O)OC` (centres undefined), the TGI in experiment [1], in [2], in [3], in [5], in experiment [6] and in experiment [7] was > 100 µM in each case. The TGI in experiment [8], in [9] and in experiment [10] was > 100 µM throughout.
